Results published in ChEMBL document CHEMBL1136440, “Design and synthesis of novel RXR-selective modulators with improved pharmacological profile” (Bioorg Med Chem Lett, 2003).

Key:
[1] = target: T1, Retinoic acid receptor RXR-gamma (Homo sapiens, UniProt P48443); experiment: Binding affinity against RXR gamma receptor using [3H]9-cis-RA as radioligand in CV-1 cells; format: cell-based, Cercopithecidae
T1 sequence (P48443 whole entry): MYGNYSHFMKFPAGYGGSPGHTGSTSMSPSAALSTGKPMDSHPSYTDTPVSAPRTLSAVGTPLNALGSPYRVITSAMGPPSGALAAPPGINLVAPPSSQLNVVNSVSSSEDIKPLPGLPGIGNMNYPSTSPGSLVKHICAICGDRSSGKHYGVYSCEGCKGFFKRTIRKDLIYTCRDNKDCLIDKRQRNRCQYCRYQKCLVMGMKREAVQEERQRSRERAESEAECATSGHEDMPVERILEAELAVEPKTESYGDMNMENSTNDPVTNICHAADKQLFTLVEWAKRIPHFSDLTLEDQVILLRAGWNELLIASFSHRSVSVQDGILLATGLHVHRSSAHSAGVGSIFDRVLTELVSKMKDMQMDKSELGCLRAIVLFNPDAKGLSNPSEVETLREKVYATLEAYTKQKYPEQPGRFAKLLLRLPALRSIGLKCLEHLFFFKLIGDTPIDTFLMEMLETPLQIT

[2] = target: T2, Retinoic acid receptor alpha (Homo sapiens) (UniProt P10276); experiment: Agonist synergy against RAR alpha was tested along with 3 nM TTNPB; format: functional; details: Cercopithecidae
T2 sequence (whole entry): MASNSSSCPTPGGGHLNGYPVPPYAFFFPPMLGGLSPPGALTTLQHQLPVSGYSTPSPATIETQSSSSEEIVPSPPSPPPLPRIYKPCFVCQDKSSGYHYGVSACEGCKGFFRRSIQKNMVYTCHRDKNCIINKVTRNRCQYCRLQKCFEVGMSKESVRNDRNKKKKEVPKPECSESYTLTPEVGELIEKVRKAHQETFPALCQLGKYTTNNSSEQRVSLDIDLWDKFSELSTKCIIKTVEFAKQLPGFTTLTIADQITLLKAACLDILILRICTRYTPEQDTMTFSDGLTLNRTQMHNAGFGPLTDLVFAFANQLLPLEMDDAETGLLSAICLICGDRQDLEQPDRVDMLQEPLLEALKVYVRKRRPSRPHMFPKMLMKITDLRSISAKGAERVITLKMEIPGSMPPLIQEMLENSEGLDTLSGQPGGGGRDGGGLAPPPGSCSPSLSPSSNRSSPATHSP

[3] = Area under curve at 0-8 hr in IRC mice after peroral administration; format: ADME, organism-based; set-up: time < 8 hr, route oral; details: mouse, in vivo, po
[4] = target: T3, Peroxisome proliferator-activated receptor gamma (Homo sapiens, UniProt P37231)
T3 sequence (P37231 whole entry): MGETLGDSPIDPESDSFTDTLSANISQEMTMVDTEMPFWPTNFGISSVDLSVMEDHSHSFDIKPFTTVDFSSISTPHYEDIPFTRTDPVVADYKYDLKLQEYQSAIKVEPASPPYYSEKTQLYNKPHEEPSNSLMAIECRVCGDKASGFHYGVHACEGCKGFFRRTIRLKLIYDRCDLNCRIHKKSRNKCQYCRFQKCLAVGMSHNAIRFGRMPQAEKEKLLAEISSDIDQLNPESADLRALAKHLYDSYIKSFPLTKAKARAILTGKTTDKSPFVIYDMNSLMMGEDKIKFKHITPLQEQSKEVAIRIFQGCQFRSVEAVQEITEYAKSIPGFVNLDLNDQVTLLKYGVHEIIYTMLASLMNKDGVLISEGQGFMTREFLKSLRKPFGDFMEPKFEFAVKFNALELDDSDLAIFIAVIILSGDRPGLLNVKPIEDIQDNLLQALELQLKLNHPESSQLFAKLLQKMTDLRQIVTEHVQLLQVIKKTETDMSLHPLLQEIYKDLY
Description: In vitro agonist efficacy against PPAR gamma along with 100 nM BRL-49653

[5] = target: T4, Retinoic acid receptor beta (Homo sapiens, UniProt P10826); experiment: Binding affinity against RAR beta receptor using [3H]ATRA as radioligand in CV-1 cells; format: cell-based, Cercopithecidae
T4 sequence (P10826 whole entry): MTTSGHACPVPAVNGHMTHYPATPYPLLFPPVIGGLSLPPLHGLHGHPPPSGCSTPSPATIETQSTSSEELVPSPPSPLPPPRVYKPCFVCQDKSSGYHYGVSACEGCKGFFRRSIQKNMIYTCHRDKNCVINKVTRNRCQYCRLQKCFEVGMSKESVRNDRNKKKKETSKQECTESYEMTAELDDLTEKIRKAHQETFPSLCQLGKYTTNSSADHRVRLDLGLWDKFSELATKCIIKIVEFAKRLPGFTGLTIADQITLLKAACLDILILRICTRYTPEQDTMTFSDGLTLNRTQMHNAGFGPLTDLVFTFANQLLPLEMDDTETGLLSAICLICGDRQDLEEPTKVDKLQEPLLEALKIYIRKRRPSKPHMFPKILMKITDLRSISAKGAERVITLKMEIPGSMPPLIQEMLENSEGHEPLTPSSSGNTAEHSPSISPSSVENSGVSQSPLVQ

[6] = Tmax value in IRC mice; format: ADME, organism-based; details: mouse, in vivo
[7] = target: T5, Retinoic acid receptor RXR-alpha (Homo sapiens, UniProt P19793); experiment: biochemical
T5 sequence (P19793 whole entry): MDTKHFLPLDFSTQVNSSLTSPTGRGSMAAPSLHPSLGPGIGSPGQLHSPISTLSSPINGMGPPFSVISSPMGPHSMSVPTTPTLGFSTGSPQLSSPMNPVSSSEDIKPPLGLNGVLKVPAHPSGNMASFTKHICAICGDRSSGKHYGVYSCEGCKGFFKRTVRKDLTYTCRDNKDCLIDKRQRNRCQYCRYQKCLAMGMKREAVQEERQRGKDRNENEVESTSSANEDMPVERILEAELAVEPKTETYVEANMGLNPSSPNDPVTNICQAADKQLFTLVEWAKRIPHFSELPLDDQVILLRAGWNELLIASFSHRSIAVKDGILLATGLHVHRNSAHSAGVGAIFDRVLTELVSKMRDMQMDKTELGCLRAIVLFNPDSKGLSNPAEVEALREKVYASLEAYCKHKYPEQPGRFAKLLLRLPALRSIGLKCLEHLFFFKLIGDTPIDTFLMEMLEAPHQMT
Description: Binding affinity against RXR alpha receptor using [3H]9-cis-RA as radioligand in CV-1 cells

SMILES | Ki [1] [nM] | Synergy [2] [nM] | AUC(0-t) at 8 h [3] [ng·h/mL] | EC50 [4] [nM] | Ki [5] [nM] | Tmax [6] [h] | Ki [7] [nM]
C/C(=C/C=C/C(C)=C/C(=O)O)c1cc(-c2ccccc2F)cc(C(C)C)c1OCC(F)F | 10.9 | 1.5 | 15200 | 46 | 3930 | 1 | 2.3
CCOc1c(\C(C)=C/C=C/C(C)=C/C(=O)O)cc(C(F)(F)C(F)(F)F)cc1C(C)C | 7.7 | 2.8 | 14400 | 99 | > 10000 | 1 | 6.3
